Measurements as given in patent publication US20220193060A1, “Inhibition of IL-1 Induced Inflammation” (THIOLAB, LLC., priority 2019, published 2022).
“Also recorded” adds a separate entry of the source.

Legend:
IL-10 = assay: LPS-stimulated macrophages, IL-10 ELISA; type: cell-based, murine; conditions: CPDS (e.g., 50 μM) 90 minutes before LPS (10 ug/ml), 24 to 48 hours
Method: (§1) An in vitro model of inflammation mediated by macrophages is used. Primary macrophages isolated from humans or non-human species (e.g., mice or rats) were used. A murine macrophage cell line RAW264.7 (CCRL-2278) was also used. Macrophages are treated with CPDS. […] Then the effect of CPDS on inflammation is assessed by comparing the levels of […] mediators IL-6 and IL-10. IL-10 and IL-6 were determined by ELISA. The level of IL-6 and IL-10 were compared to the level prior to CPDS treatment.

[1] = test system: non-malignant intraductal breast hyperplasia; assay: Case: oral CPDS for breast hyperplasia; type: in vivo, human
Method: An individual, diagnosed with non-malignant intraductal breast hyperplasia on the upper left quadrant of the left breast was treated with CPDS. […] CPDS was administered in 99.7% pure form in capsules without excipients.

arthritic psoriasis = assay: Case: oral CPDS for arthritic psoriasis; type: in vivo, human; conditions: oral 140 mg/day, 4 days a week
Method: The patient was a person. Their disease began 1 year previously. Their main complaint was pain in their right wrist, which prevented them from using their right hand and arm; they had bothersome itching cutaneous psoriatic lesions. Treatment at the time consisted of cortisone (5 mg/day) and non-steroidal anti-inflammatory drugs and weekly administrations of methotrexate (MTX) 5 mg/week. The side effects of MTX were severe stomach, throat, and mouth lesions, nightmares, visual hallucinations, and dizziness. The patient began taking oral CPDS 90 days previous (140 mg/day), 4 days a week. Within a few days, the side effects of MTX became much milder, and their immune defenses increased. Instead of catching a cold, as they had often, that lasted for weeks and needed antibiotics, their colds were much more brief normal duration.

colonic polyps = assay: Case: oral CPDS for colonic polyps; type: in vivo, human; conditions: person; oral 140 mg per day; 1, 3, 9, and 10 months
Method: An individual was diagnosed with colon neoplasia. About one month after the initial diagnosis, the individual underwent semi colotomy at which time about 45 cm of their colon was removed. […] The polyps were cauterized at that time. About one month later, the individual began treatment with CPDS which was administered orally at a dose of 140 mg per day.

[2] = cited from earlier work
IL-6 = assay: LPS-stimulated macrophages, IL-6 ELISA; type: cell-based, murine
Method: as §1

IP-10 = assay: LPS-stimulated RAW 264.7 cells, IP-10 secretion; type: cell-based; conditions: murine RAW 264.7 cells, pre-treatment prior to LPS
Method: An in vitro model of inflammation mediated by macrophages is used. […] A murine macrophage cell line RAW264.7 (CCRL-2278) was also used. Macrophages are treated with CPDS. […] Then the effect of CPDS on inflammation is assessed by comparing the levels of anti-inflammatory mediators IL-6 and IL-10. IL-10 and IL-6 were determined by ELISA. The level of IL-6 and IL-10 were compared to the level prior to CPDS treatment. […] In addition we measured decrease in the secretion of IP-10.

THP-1 cells = assay: Cell viability of CPDS-treated THP-1 cells; type: cell-based, human
Method: Methodology: The study included replicated tests of IL-1β levels with and without CPDS, as well as reference testing of untreated cells and cells treated with lactoferrin and clobetasol. A third test was conducted of IL-1 receptor […] (IL-1RA) receptor, to assist in distinguishing whether reductions in IL-1β levels were associated with secretion or receptor blocking (via the receptor antagonist). Cell viability studies were conducted for both sets of tests. 1. THP-1 cells were grown in (RPMI+10% FBS, 10 mM HEPES, 1 mM Sodium Pyruvate, and 0.05 mM 2-Mecaptpethanol) to P8. 2. Cells were plated at 30,000 cells per well in 120 ul with Media+20 ng/ml PMA+2× Genta. 3. […] Cells were treated according to plan below. 5. Cells were incubated for three more days at 37° C. and 5% CO2. 6. Cell supernatant were collected and ELISA was measured for IL-1RA, IL-1α, and IL-1β. 7. Plate was read at 490 nm until O.D reached 1.5.

poison oak = assay: Case: topical CPDS for poison oak exposure; type: in vivo, human
Method: An individual was exposed to poison oak on their left arm through physical contact. They developed a rash and other symptoms of inflammation such as redness, itching, burning sensation, and swelling. The individual was treated using topical application a cream containing 1% CPDS by weight. The cream was applied every two hours on the first day, and thereafter two to three times a day. The cream contained water, mineral oil, stearic acid, triethanolamine, propylene glycol, glyceryl stearate, stearyl alcohol, dirnethicone, isopropyl palmitate, cetyl alcohol, lactic acid, retinyl acetate, tocopheryl acetate, hydrolyzed collagen, fragrance, methylparaben, and O&C red #33. The individual was treated alternatively with 1% CPDS by weight in an ointment containing white petroleum and mineral oil.

RAW 264.7 cells = assay: Cell viability of RAW 264.7 cells; type: cell-based; conditions: murine RAW 264.7 cells
[3] = IV doses up to 300 mg/kg (1 mM)

O=C(O)c1ccc(SSc2ccc(C(=O)O)cn2)nc1 [CPDS, 6,6′-dithiodinicotinic acid]
expression level of IL-10 (IL-10): dramatically reduced | pain in breast and axilla ([1]; after commencing oral 140 mg per day): subsided within two days | pain following discontinuation of CPDS ([1]; after discontinuation): returned within two to three days | side effect ([1]; oral 140 mg per day): No side effect | growth of breast hyperplasia (mammograms) ([1]; person, oral 140 mg per day, forty-eight months): stopped growing | immune defenses (arthritic psoriasis): increased | function of right hand and wrist (arthritic psoriasis; 90 days): regained function | side effects of MTX (arthritic psoriasis; person, within a few days): much milder | growth of polyps at check-up visits (colonic polyps): no new growth | kidney or liver weight [2, 3]: slight increase | lethality [2, 3]: not fatal | tolerability ([2]; doses up to 300 mg/kg (1 mM) intravenous): tolerated | IL-6 levels / expression (IL-6; FIG. 3, macrophages inflamed by LPS, dosage series of CPDS): dramatically reduced; also recorded: concentration dependent diminution | expression level of IL-6 (IL-6; macrophages, CPDS (e.g., 50 μM) 90 minutes before LPS (10 ug/ml), 24 to 48 hours): dramatically reduced | activity on IL-6 compared with DEX (IL-6; murine RAW 264.7 cells, LPS): more active | secretion of IL-6 (IL-6; murine RAW 264.7 cells, pre-treatment prior to LPS): drastically reduced | secretion of IP-10 (IP-10): decrease | cell viability (THP-1 cells; 200 μM): slight decline in viability | cell viability (THP-1 cells; all CPDS concentrations except 200 μM, both tests): ≥ 100% | itching and burning (poison oak; person, topical cream or ointment with 1% CPDS by weight): dissipated immediately | recurrence of symptoms (poison oak; topical 1% CPDS by weight): did not recur | redness and swelling (poison oak; topical 1% CPDS by weight): disappeared in about one week | spread of rash to other parts of the body (poison oak; topical 1% CPDS by weight): did not spread | cytotoxicity (cell viability) (RAW 264.7 cells): no cytotoxicity
